Experimental findings from patent US9827184B2, “Peelable transparent diamond nail-care coat” (LES FINS NETWORK TECHNOLOGY CO.,LTD., priority 2015, dated 2017) are described below.

Experiment in all cases: MTT microplate growth inhibition (MIC50) in MH culture medium
Format in all cases: cell-based
Common to all, as to details: 96-well plate, 37° C., 24 h, OD 570 nm, unit not given, test concentrations given in μg·ML^−1

In one assay the test system is epidermophyton floccosum. As to the method: (§1) Bacteria (trichophylon rubrum, trichophyton mentagrophytes and epidermophyton fioccosum) are suspended in an MH culture medium with a dispersion concentration of about 10^5 cfu·ML^−1, and bacterium solution is added onto a 96-well plate (100 μL of the bacterium solution is added in each well); and the culture medium is taken as blank control, DMSO is taken as negative control for replacing a test substance, and itraconazole (Xian-Janssen Pharmaceutical Co., Ltd.) is taken as positive control. […] The 96-well plate is placed in an incubator at 37° C. and cultured for 24 h, then 25 μL of PBS containing 4 mg of MTT per mL is added in each well and cultured for 4 h under the same condition, and 100 μL of SDS lysate (95 mL of tri-distilled water+10 g of SDS+5 mL of isopropanol+0.1 mL of concentrated hydrochloric acid) is added in each well and then cultured for 12 h. An OD value is measured by a microplate reader at 570 nm, and an inhibition percent is calculated as follows: [formula]

The next assay deals with trichophyton rubrum. As to the method:
as §1

In assay [1] the test system is trichophyton mentagrophytes. Here is the method: as §1

`CCC(C)n1ncn(-c2ccc(N3CCN(c4ccc(OCC5COC(Cn6cncn6)(c6ccc(Cl)cc6Cl)O5)cc4)CC3)cc2)c1=O` (stereo not drawn) [itraconazole]: the “50% minimum inhibitory concentration (MIC50) for epidermophyton floccosum” value with epidermophyton floccosum is reported as 0.65. In addition, the “50% minimum inhibitory concentration (MIC50) for trichophyton rubrum” value in the assay on trichophyton rubrum was 0.63. Further, in assay [1], the “50% minimum inhibitory concentration (MIC50) for trichophyton mentagrophytes” value is given as 0.70.

With `COc1ccc(-c2cc(=O)c3cc(O)c(OC)c4c3n2OC2OC(C)=C(O)C=C2C4)cc1` (stereo not drawn) [compound of formula I], the “50% minimum inhibitory concentration (MIC50) for epidermophyton floccosum” value with epidermophyton floccosum came to 0.82. Further, in the assay with trichophyton rubrum, the “50% minimum inhibitory concentration (MIC50) for trichophyton rubrum” value is given as 0.63. Further, in assay [1], the “50% minimum inhibitory concentration (MIC50) for trichophyton mentagrophytes” value was determined as 0.60.
